Experimental data published in patent US20250197864A1, “LNCRNA TRANSCRIPTS IN MELANOMAGENESIS” (The Regents of the University of California, priority 2021, published 2025).

Legend:
D04 cells = assay: Flow cytometry apoptosis (Annexin V and propidium iodide); type: cell-based, human; settings: 50 nM, 24 h, vs Control-ASO
Method: To confirm activation of apoptosis and cell death in response to TRASH-ASO treatment (SEQ ID NO: 15) D04 cells were either treated with control-ASO or TRASH-ASO (50 nM) for 24 h. The cells were stained with Alexa 488 Annexin V and propidium iodide (PI) (Invitrogen™ Dead Cell Apoptosis Kits with Annexin V for Flow Cytometry Catalog number: V13241). […] (FIG. 5e)

[1] = system: sarcoma cell line SK-LMS-1; assay: Cell viability assay (ATP quantitation); type: cell-based; settings: SK-LMS-1 sarcoma; 50 nM, 120 hrs; Lipofectamine3000 2 ul/ml; vs non-targeting control ASO
Method: (§1) EsiRNA, siRNA and ASO GapmeRs were transfected in a final concentration of 50 nM unless mentioned otherwise and the transfection reagent Lipofectamine 3000 (2 ul/ml) was added according to the manufacturer's instructions.
(§2) Dependent on cell doubling time, 0.7-2×10^^3 cells were seeded in 96 well plates. 1 day after seeding cells were incubated in media with oligonucleotide concentration and/or MEKi and transfection reagent. 3 (synergy experiments) or 5 (solely ASO) days after transfection Total luminescence was measured on the SynergyHT plate reader (BioTek) using Gen5 software.
(§3) Cell viability was compared to treatment with non-targeting control ASO-treatment. Lipofectamine3000 concentration was 2 ul/ml.

[2] = system: hepatocellular carcinoma cell line HepG2; assay: Cell viability assay (ATP quantitation); type: cell-based; settings: 50 nM, 120 hrs, Lipofectamine3000 2 ul/ml, vs non-targeting control ASO
Method: as §1, §2, §3

[3] = system: kinases in D04, D04RM and MM415 melanoma cell extracts; assay: High Throughput Kinase Activity Mapping (HT-KAM); type: cell-based, human; settings: ASO 50 nM, one day, vs Control-ASO
Method: We mapped and compared the phospho-catalytic profile of kinases of D04, MM415 and D04RM cells that were incubated with TRASH targeting ASOs (SEQ TD NO: 15), ASOs targeting the oncogenic lncRNA Malat1 and non-targeting control ASOs. Therefore, ye used the high-throughput system HTKAM to measure the enzymatic activity of kinases using biological peptide targets as phospho-sensors to reveal kinase dependencies in cell lines.
Kinases cover a wide range of apoptosis regulating functions in cancer. Given the findings that TRASH-ASO treatment (SEQ ID NO:15) strongly affects the transcriptional regulation of genes that are related to kinase signaling pathways, we aimed to perform functional profiling of kinase activity shifts triggered by TRASH-inhibition. To do so, we used a kinase activity screening platform39 (named High Throughput Kinase Activity Mapping—HT-KAM) that enables the simultaneous identification of kinase enzymes functional state in cancer cells across a broad range of kinase families (see Methods for details). We generated protein extracts of two versions of the D04 (D04—treatment naive; D04RM—trametinib resistant) and the MM415 melanoma cell-lines, treated with Control-ASOs or TRASH-ASOs. […]

[4] = system: gene expression in D04 melanoma cells; assay: DAVID Functional Annotation Clustering (GO term) analysis of DE genes; parameters: species or system human; settings: RNA-Seq
Method: Differential expression (DE) analysis was done using DESeq2. Differentially expressed genes were defined by more than 1.5-fold changes (log 2 >0.58 or <−0.58) in expression with FDR<0.05. GO term analysis was done using DAVID Functional Annotation Clustering analysis.
To examine the biomolecular changes upon TRASH-inhibition in melanoma, D04 cells were treated with TRASH-ASOs (SEQ ID NO:15) and Control-ASOs and RNA was extracted and used for RNA-Seq. […] These GO terms consisted of genes encoding growth factors, tyrosine kinases, G protein coupled receptor subunits, and collagen subunits. Scatter plot diagram showing differential gene expression after TRASH-ASO treatment compared to Control-ASO treatment. (cut-off for significance was adjusted p-value <0.05). Data was obtained from RNA-Seq of D04 melanoma cells, treatment period was three days. (FIG. 5c)

[5] = system: U87-MG Glioblastoma cell line; assay: Cell viability assay (ATP quantitation); type: cell-based; settings: 50 nM, 5 days, vs non-targeting control
Procedure, shortened: (§4)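 Cells (0.7-2×10^^3 per well, by doubling time) were transfected one day after seeding with esiRNA, siRNA or ASO GapmeRs at 50 nM final unless stated, using Lipofectamine 3000, with or without MEKi. Total luminescence was read 3 days (synergy) or 5 days (ASO alone) after transfection.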

[6] = system: HCT116 colon carcinoma cell line; assay: Cell viability assay (ATP quantitation); type: cell-based; settings: 50 nM, 5 days, vs non-targeting control
Procedure, shortened: as §4

[7] = system: H929 multiple myeloma cell line; assay: Cell viability assay (ATP quantitation); type: cell-based; settings: 50 nM, 5 days, vs non-targeting control
Procedure, shortened: as §4

[8] = system: A-172 Glioblastoma cell line; assay: Cell viability assay (ATP quantitation); type: cell-based; settings: 50 nM, 5 days, vs non-targeting control
Procedure, shortened: as §4

[9] = system: H2228 lung cancer cell line; assay: Cell viability assay (ATP quantitation); type: cell-based; settings: 50 nM, 5 days, vs non-targeting control
Procedure, shortened: as §4

[10] = system: Sk-Mel-5 melanoma cell line; assay: Cell viability assay (ATP quantitation); type: cell-based; settings: 50 nM, 5 days, vs non-targeting control
Procedure, shortened: as §4

[11] = system: U20S osteosarcoma cell line; assay: Cell viability assay (ATP quantitation); type: cell-based; settings: 50 nM, 5 days, vs non-targeting control
Procedure, shortened: as §4

[12] = system: SW480 colon carcinoma cell line; assay: Cell viability assay (ATP quantitation); type: cell-based; settings: 50 nM, 5 days, vs non-targeting control
Procedure, shortened: as §4

[13] = system: LS174 colon carcinoma cell line; assay: Cell viability assay (ATP quantitation); type: cell-based; settings: 50 nM, 5 days, vs non-targeting control
Procedure, shortened: as §4

AV4 melanoma cell line = assay: Cell viability assay (ATP quantitation); type: cell-based; settings: 50 nM, 5 days, vs non-targeting control
Procedure, shortened: as §4

[14] = system: Hs940.T melanoma cell line; assay: Cell viability assay (ATP quantitation); type: cell-based; settings: 50 nM, 5 days, vs non-targeting control
Procedure, shortened: as §4

[15] = system: H82 lung cancer cell line; assay: Cell viability assay (ATP quantitation); type: cell-based; settings: 50 nM, 5 days, vs non-targeting control
Procedure, shortened: as §4

[16] = system: T98G Glioblastoma cell line; assay: Cell viability assay (ATP quantitation); type: cell-based; settings: 50 nM, 5 days, vs non-targeting control
Procedure, shortened: as §4

[17] = system: WM3060 melanoma cell line; assay: Cell viability assay (ATP quantitation); type: cell-based; settings: 50 nM, 5 days, vs non-targeting control
Procedure, shortened: as §4

[18] = system: Sk-N-AS Neuroblastoma cell line; assay: Cell viability assay (ATP quantitation); type: cell-based; settings: 50 nM, 5 days, vs non-targeting control
Procedure, shortened: as §4

[19] = system: SW1271 lung cancer cell line; assay: Cell viability assay (ATP quantitation); type: cell-based; settings: 50 nM, 5 days, vs non-targeting control
Procedure, shortened: as §4

[20] = system: H1299 lung cancer cell line; assay: Cell viability assay (ATP quantitation); type: cell-based; settings: 50 nM, 5 days, vs non-targeting control
Procedure, shortened: as §4

[21] = system: U138-MG Glioblastoma cell line; assay: Cell viability assay (ATP quantitation); type: cell-based; settings: 50 nM, 5 days, vs non-targeting control
Procedure, shortened: as §4

[22] = system: MaMel30 melanoma cell line; assay: Cell viability assay (ATP quantitation); type: cell-based; settings: 50 nM, 5 days, vs non-targeting control
Procedure, shortened: as §4

GACTGGAGATAATTAA (gapmer, pattern not given here) [SEQ ID NO: 15, GapmeR ASO targeting AC004540.4 (TRASH), exon region of both isoforms; used for in vitro experiments]
fractions of apoptotic and dead cells (Annexin V / PI) (D04 cells): Increased fractions of apoptotic and dead cells
cell viability decrease [1]: significant cell viability decrease
cell viability decrease [2]: significant cell viability decrease
activity of anti-apoptotic kinases (AKT1, CDK1, LYN, YES1, CHEK1, PKCA, STK11, PKCa, PIM1) by HT-KAM ([3]; listed as SEQ TD NO: 15): significantly decreased activity levels
activity of anti-apoptotic kinases (AKT1, CDK1, LYN, YES1, CHEK1, PKCA, STK11, PKCa, PIM1) by HT-KAM ([3]; listed as TRASH-ASO): significantly less active
top enriched GO term clusters associated with the down-regulated genes [4]: “ECM-receptor interaction” and “PI3K-AKT signaling pathway”
top enriched GO term clusters associated with the up-regulated genes [4]: “protein tyrosine kinase activity” (GO: 0004713) and “Ras guanyl-nucleotide exchange factor activity” (G00005088)
cell viability decrease [5]: significant cell viability decrease
cell viability decrease [6]: significant cell viability decrease
cell viability decrease [7]: significant cell viability decrease
cell viability decrease [8]: significant cell viability decrease
cell viability decrease [9]: significant cell viability decrease
cell viability decrease [10]: significant cell viability decrease
cell viability decrease [11]: significant cell viability decrease
cell viability decrease [12]: significant cell viability decrease
cell viability decrease [13]: significant cell viability decrease
cell viability decrease (AV4 melanoma cell line): significant cell viability decrease
cell viability decrease [14]: significant cell viability decrease
cell viability decrease [15]: significant cell viability decrease
cell viability decrease [16]: significant cell viability decrease
cell viability decrease [17]: significant cell viability decrease
cell viability decrease [18]: significant cell viability decrease
cell viability decrease [19]: significant cell viability decrease
cell viability decrease [20]: significant cell viability decrease
cell viability decrease [21]: significant cell viability decrease
cell viability decrease [22]: significant cell viability decrease
